11 compounds from ChEMBL document CHEMBL4017494, “Structural Basis of Wee Kinases Functionality and Inactivation by Diverse Small Molecule Inhibitors” (J Med Chem, 2017) can be followed below.

One data set relates to HEK-293T. The data set can be described thus: Antiproliferative activity against HEK293T cells measured after 72 hrs by CellTiter-Blue assay. It is filed as cell-based. The conditions noted are these: Homo sapiens. (In general: Alamar Blue is a resazurin reagent that responds to reducing activity.)
The next data set concerns MDA-MB-231. The data set can be described thus: Antiproliferative activity against human MDA-MB-231 cells measured after 72 hrs by CellTiter-Blue assay. Format: functional, cell-based. The note with it: MDA-MB-231, 72 h.
Another data set has as its system MM1.S. Briefly: Antiproliferative activity against human MM1S cells measured after 72 hrs by CellTiter-Blue assay. Format: functional, cell-based.
Data set [1] deals with T1, Wee1-like protein kinase 2 (Homo sapiens, UniProt P0C1S8). The data set can be described thus: Binding affinity to recombinant human N-terminal His6-tagged Wee2 kinase domain (202 to 492 residues) expressed in Escherichia coli BL21 (DE3) by isothermal titration calorimetry. The note with it: for pKd: read-out: Kd.
Target sequence in this assay (P0C1S8 whole entry, the tested form may be a part): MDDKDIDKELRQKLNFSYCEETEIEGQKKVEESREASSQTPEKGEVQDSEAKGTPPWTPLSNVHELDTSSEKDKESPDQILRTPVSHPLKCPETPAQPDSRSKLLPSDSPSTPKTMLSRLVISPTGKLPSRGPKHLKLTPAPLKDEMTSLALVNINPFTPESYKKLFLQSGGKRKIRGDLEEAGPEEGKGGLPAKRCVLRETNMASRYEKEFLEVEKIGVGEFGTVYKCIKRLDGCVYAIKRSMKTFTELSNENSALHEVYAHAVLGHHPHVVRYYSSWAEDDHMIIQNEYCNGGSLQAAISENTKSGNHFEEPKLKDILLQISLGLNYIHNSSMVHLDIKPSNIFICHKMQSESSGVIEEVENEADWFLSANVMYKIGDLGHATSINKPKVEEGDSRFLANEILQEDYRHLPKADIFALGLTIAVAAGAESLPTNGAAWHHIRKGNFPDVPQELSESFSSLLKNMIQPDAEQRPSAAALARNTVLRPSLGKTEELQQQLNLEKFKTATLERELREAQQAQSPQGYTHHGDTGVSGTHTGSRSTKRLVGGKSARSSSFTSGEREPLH
Data set [2] addresses T2, Membrane-associated tyrosine- and threonine-specific cdc2-inhibitory kinase (Homo sapiens, UniProt Q99640).
T2 sequence (Q99640 whole entry): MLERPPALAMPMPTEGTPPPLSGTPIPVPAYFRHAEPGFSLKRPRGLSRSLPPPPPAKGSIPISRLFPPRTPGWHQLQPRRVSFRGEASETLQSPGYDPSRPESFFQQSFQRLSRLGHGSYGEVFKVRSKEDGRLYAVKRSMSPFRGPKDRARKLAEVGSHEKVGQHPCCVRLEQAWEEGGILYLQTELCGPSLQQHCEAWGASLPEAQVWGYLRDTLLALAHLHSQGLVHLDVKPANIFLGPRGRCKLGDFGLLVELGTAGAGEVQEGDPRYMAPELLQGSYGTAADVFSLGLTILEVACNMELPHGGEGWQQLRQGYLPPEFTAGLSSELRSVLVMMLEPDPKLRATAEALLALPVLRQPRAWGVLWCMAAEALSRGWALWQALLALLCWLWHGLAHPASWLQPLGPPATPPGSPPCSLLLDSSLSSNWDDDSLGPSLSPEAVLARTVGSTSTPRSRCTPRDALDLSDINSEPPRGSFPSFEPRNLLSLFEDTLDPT
The data set can be described thus: Binding affinity to recombinant human N-terminal His6-tagged Myt1 kinase domain (75 to 361 residues) by isothermal titration calorimetry. The conditions noted are these: for pKd: read-out: Kd.

For data set [3], the target named is T3, Wee1-like protein kinase (Homo sapiens, UniProt P30291).
Target sequence in this assay (P30291 whole entry, looked up): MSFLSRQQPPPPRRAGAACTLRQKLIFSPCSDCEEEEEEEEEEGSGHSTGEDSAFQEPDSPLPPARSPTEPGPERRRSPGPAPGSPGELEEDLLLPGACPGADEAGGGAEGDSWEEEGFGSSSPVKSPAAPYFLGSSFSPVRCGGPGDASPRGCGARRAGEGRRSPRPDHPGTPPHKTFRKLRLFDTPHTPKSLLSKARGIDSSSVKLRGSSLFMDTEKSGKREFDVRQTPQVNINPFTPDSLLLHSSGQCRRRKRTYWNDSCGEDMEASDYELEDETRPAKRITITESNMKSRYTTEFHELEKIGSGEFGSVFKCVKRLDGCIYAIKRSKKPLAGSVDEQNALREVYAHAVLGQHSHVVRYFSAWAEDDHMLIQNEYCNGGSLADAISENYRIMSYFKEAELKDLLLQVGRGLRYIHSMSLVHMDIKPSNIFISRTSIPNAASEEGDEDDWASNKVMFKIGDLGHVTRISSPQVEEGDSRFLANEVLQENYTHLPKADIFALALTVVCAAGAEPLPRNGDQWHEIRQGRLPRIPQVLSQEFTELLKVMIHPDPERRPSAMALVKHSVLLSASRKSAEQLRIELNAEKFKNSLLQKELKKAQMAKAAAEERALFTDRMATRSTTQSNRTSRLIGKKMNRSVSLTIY
In data set [4] the target is T1, Wee1-like protein kinase 2.
Target sequence in this assay (P0C1S8 whole entry, looked up, the tested form may be a part): as the sequence (P0C1S8 whole entry, the tested form may be a part) above
Data set [5] addresses T4, Membrane-associated tyrosine- and threonine-specific cdc2-inhibitory kinase (Homo sapiens) (UniProt Q99640).
T4 sequence (whole entry): T2 sequence (Q99640 whole entry)

For data set [6], the target named is T3, Wee1-like protein kinase. Briefly: Binding affinity to recombinant human N-terminal His6-tagged Wee1 kinase domain (291 to 575 residues) expressed in Escherichia coli BL21 (DE3) by isothermal titration calorimetry. The note with it: for pKd: read-out: Kd. (In general: Isothermal titration calorimetry measures the heat released or taken up as one component is titrated into another.)
Target sequence in this assay (P30291 whole entry): as the sequence (P30291 whole entry, looked up) above

Data set [7] concerns the target T1, Wee1-like protein kinase 2. The data set can be described thus: Binding affinity to recombinant human full-length N-terminal His8-tagged Wee2 (1 to 567 residues) expressed in human Expi293F cells assessed as dessociation constant by quantitative real-time PCR method. It is filed as cell-based.
Target sequence in this assay (P0C1S8 whole entry, the tested form may be a part): as the sequence (P0C1S8 whole entry, the tested form may be a part) above
Data set [8] in a line: Binding affinity to human FLT3 D835V-mutant assessed as dissociation constant by quantitative real-time PCR method. On the technique in general: Real-time PCR tracks product formation cycle by cycle.
The target in data set [9] is T3, Wee1-like protein kinase. The data set can be described thus: Inhibition of Wee1 in HEK293T cells assessed as decrease in CDK1 phosphorylation at Tyr15 at 0.1 to 10 uM after 6 hrs by Western blot method. It is filed as cell-based.
Target sequence in this assay (P30291 whole entry): as the sequence (P30291 whole entry, looked up) above
Data set [10] deals with T5, Serine/threonine-protein kinase PLK1 (Homo sapiens, UniProt P53350).
Data set [11] addresses T3, Wee1-like protein kinase. The conditions noted are these: at 0.1 to 10 µM.
Target sequence in this assay (P30291 whole entry, looked up): as above
The target in data set [12] is T5, Serine/threonine-protein kinase PLK1. The note with it: 0.1 to 10 uM.
For data set [13], the target named is T3, Wee1-like protein kinase. The data set can be described thus: Inhibition of Wee1 in HEK293T cells assessed as decrease in CDK1 phosphorylation at Tyr15 at 0.01 to 10 uM after 6 hrs by Western blot method. It is filed as cell-based.
Target sequence in this assay (P30291 whole entry): as the sequence (P30291 whole entry, looked up) above
The target of data set [14] is T3, Wee1-like protein kinase. The note with it: 0.1 to 10 uM.
Target sequence in this assay (P30291 whole entry, looked up): as above

pIC50, pKd: −log10 of the molar value. Activity calls are given as the source filed them. The calls are words filed in the database; no cut-off is given here.

T5 sequence (P53350 whole entry): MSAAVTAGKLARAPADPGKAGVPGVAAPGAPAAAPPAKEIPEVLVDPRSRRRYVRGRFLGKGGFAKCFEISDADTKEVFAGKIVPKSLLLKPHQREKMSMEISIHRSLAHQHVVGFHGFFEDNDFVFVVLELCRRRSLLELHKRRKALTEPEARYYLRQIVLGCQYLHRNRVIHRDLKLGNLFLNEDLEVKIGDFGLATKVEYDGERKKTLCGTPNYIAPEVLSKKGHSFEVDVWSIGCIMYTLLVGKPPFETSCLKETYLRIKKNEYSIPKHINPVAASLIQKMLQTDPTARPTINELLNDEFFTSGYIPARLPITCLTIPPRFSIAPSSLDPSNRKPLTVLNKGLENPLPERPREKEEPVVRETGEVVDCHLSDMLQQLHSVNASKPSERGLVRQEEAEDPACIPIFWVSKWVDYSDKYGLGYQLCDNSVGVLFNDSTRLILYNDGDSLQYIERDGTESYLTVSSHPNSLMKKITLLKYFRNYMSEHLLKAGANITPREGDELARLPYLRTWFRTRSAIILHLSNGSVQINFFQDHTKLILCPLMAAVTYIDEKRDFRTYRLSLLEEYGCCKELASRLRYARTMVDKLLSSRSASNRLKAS

Usually pIC50 stands for the IC50 on a negative log10 scale, so that one unit is a factor of ten. The pKd is the negative decadic logarithm of the Kd, by convention in mol/L. What is called ΔTm is the shift of the melting midpoint relative to a reference. In the case of `COc1cc2c(Nc3cc(Cl)c(OC)c(Cl)c3)c(C#N)cnc2cc1OCCCN1CCN(C)CC1`, the pIC50 is 5.80 with HEK-293T, 5.74 in the data set with MDA-MB-231 and 5.41 in the data set on MM1.S. The pKd is 8.33 in data set [1] and 6.35 in [2]. The ΔTm on Wee1-like protein kinase [3] was found to be 10 °C; in data set [4] it was 12.3 °C; in data set [5], 3 °C.

Consider `COc1cc(Nc2c(C#N)cnc3cc(OCCCN4CCN(C)CC4)c(OC)cc23)c(Cl)cc1Cl`, for which the ΔTm in data set [5] came to 3.9 °C.

In the case of `Cc1nc(Nc2ncc(C(=O)Nc3c(C)cccc3Cl)s2)cc(N2CCN(CCO)CC2)n1`, the ΔTm in data set [4] is 9.2 °C.

Take `CC(=O)NCC(=O)N1[C@@H]2CC[C@H]1c1ccc(Nc3ncc(C(F)(F)F)c(NC4CCC4)n3)cc12` (single isomer, unassigned) [PF-03814735]: the results for the pKd (at Wee1-like protein kinase [6]; in data set [1]) were 7.10 and 6.89, respectively. Also, the Kd entry in data set [2] was “Not Active”. In addition, the ΔTm on Wee1-like protein kinase [3] is 7.9 °C; in data set [4], 8.5 °C; in data set [5] it was -0.1 °C.

As for `C=CCn1c(=O)c2cnc(Nc3ccc(N4CCN(C)CC4)cc3)nc2n1-c1cccc(C(C)(C)O)n1` [ADAVOSERTIB], the pKd in data set [7] is 8.41; in [8], 8.12; in [1] it was 7.57; in [10], 8.52. The pIC50 in the data set with HEK-293T was 6.54; in the data set on MDA-MB-231 it was 6.59; in the data set on MM1.S, 6.51. Also, on Wee1-like protein kinase [9], the “inhibition (INH)” value was “Active”. Besides, the inhibition result (on Wee1-like protein kinase [11]; in [12]) was “Active” throughout. Moreover, the ΔTm came out at 15.4 °C on Wee1-like protein kinase [3], 11.6 °C in [4] and 3.3 °C in data set [5].

For the compound `CC[C@@H]1C(=O)N(C)c2cnc(Nc3ccc(C(=O)NC4CCN(C)CC4)cc3OC)nc2N1C1CCCC1` [BI-2536], on Wee1-like protein kinase [9], the “inhibition (INH)” value is reported as “Not Active”.

For `C[C@@H](Oc1cc(-n2cnc3ccc(CN4CCN(C)CC4)cc32)sc1C(N)=O)c1ccccc1C(F)(F)F` [GSK-461364], the pIC50 with HEK-293T, with MDA-MB-231 and in the data set on MM1.S was 8.46 to 9.00 in each case. Further, the “inhibition (INH)” value on Wee1-like protein kinase [13] is “Not Active”. In addition, on Wee1-like protein kinase [11], the inhibition result is “inactive”.

On to `CNC(=O)c1nn(C)c2c1C(C)(C)Cc1cnc(Nc3ccc(N4CCN(C)CC4)cc3)nc1-2` [MILCICLIB], for which the pKd at Wee1-like protein kinase [6] is 7.87; in [1], 7.58; in data set [2], 6.00. Moreover, the inhibition result on Wee1-like protein kinase [11] and at Wee1-like protein kinase [14] was “Dose-dependent effect” throughout. Besides, the ΔTm on Wee1-like protein kinase [3] is 13.4 °C; in data set [4] it was 11.5 °C; in data set [5], 3.6 °C.

For `CCN(CC)CCOc1ccc(Nc2ncc3cc(-c4c(Cl)cccc4Cl)c(=O)n(C)c3n2)cc1` [PD-0166285], the results for the pIC50 in the data set on HEK-293T, in the data set with MDA-MB-231 and in the data set on MM1.S were 6.54, 6.80 and 6.28, respectively. The pKd in data set [1] is 8.30; in [2], 6.61.

`CCOc1cc2ncc(C#N)c(Nc3ccc(F)c(Cl)c3)c2cc1NC(=O)/C=C/CN(C)C` [PELITINIB]: the pKd was 6.30 in [1] and 5.96 in data set [2]. The ΔTm in data set [4] was 5.6 °C; in data set [5] it was 2.4 °C.

For `CN1CCN(CCOc2cc(OC3CCOCC3)c3c(Nc4c(Cl)ccc5c4OCO5)ncnc3c2)CC1` [SARACATINIB], the Kd result (on Wee1-like protein kinase [6]; in data set [1]) was “Not Active” in each case. The ΔTm on Wee1-like protein kinase [3] is 1.2 °C; in data set [4], 0.65 °C; in data set [5], 2.1 °C.
